Results reported in US8435994B2, “Substituted [1,2,4]triazolo[4,3-alpha]quinoxalines as adenosine A2a receptor antagonists” (Merck Sharp & Dohme Corp., priority 2009, dated 2013).
Where two headings read alike, the source gives them in different places.

Molecular target: T1, Human A2a Adenosine Receptor (Homo sapiens, UniProt P29274)
T1 construct: purchased Receptor Biology, Inc., Beltsville, Md; RB-HA2a
Assay: Human Adenosine A2a Receptor Competition Binding Assay ([3H]-SCH 58261 displacement)
Procedure: Human Adenosine A2a Receptor Competition Binding Assay Protocol
A2a: Human A2a Adenosine Receptor membranes, Catalog #RB-HA2a, Receptor Biology, Inc., Beltsville, Md. Dilute to 17 μg/100 μl in membrane dilution buffer (see below).
Membrane dilution buffer: Dulbecco's Phosphate Buffered Saline (Gibco/BRL)+ 10 mM MgCl2.
Compound Dilution Buffer: Dulbecco's Phosphate Buffered Saline (Gibco/BRL)+10 mM MgCl2 supplemented with 1.6 mg/ml methyl cellulose and 16% DMSO. Prepared fresh daily.
A2a: [3H]-SCH 58261 [7-(2-phenylethyl)-5-amino-2-(2-furyl)-pyrazolo-[4,3-e]-1,2,4-triazolo[1,5-c]pyrimidine], custom synthesis, Amersham Pharmacia Biotech, Piscataway, N.J. Stock is prepared at 1 nM in membrane dilution buffer. Final assay concentration is 0.5 nM. SCH-58261 is discussed in Zocchi et al., J Pharmacol Exp Ther. 276(2):398-404 (1996).
A2a: To determine non-specific binding, add 100 nM CGS 15923 (RBI, Natick, Mass.). Working stock is prepared at 400 nM in compound dilution buffer.
Prepare 1 mM stock solutions of compounds in 100% DMSO. Dilute in compound dilution buffer. Test at 10 concentrations ranging from 3 μM to 30 μM. Prepare working solutions at 4× final concentration in compound dilution buffer.
Perform assays in deep well 96 well plates. Total assay volume is 200 μl. Add 50 μl compound dilution buffer (total ligand binding) or 50 μl […] working solution (A2a non-specific binding) or 50 μl of drug working solution.

[1] = Table I, human A2a membranes, [3H]-SCH 58261 0.5 nM, Cheng-Prusoff, read-out: Activity (Ki)
[2] = Table II, human A2a membranes, [3H]-SCH 58261 0.5 nM, Cheng-Prusoff, read-out: Activity (Ki in nM)
[3] = assay of Example 25, read-out: Ki value for the adenosine A2a receptor

T1 sequence (P29274 whole entry): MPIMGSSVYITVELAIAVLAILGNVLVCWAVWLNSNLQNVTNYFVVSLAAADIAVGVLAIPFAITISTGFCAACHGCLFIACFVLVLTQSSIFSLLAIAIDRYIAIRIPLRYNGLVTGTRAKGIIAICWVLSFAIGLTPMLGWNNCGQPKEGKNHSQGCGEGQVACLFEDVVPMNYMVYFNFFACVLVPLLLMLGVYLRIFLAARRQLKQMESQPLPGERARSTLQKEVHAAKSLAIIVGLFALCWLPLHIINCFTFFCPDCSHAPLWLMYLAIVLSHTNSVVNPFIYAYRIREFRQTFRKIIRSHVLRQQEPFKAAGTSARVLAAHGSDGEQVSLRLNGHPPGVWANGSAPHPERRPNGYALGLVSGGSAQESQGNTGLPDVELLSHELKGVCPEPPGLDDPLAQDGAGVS

Row | Ki [1] [nM] | Compound | also measured
1 | 8.3 | CS(=O)(=O)c1ccccc1Cn1nc2c(N)nc3ccccc3n2c1=O [Compound 41] | –
2 | 10.2 | Nc1nc2ccc(C(F)(F)F)cc2n2c(=O)n(Cc3c(F)cccc3F)nc12 [Compound 42] | –
3 | 12.1 | COc1ccc2nc(N)c3nn(Cc4ccccc4)c(=O)n3c2c1 [Compound 43] | –
4 | 14 | COc1cccc(OC)c1Cn1nc2c(N)nc3ccccc3n2c1=O [Compound 44] | –
5 | 29.2 | Nc1nc2ccccc2n2c(=O)n(CCc3ccccc3)nc12 [Compound 45] | –
6 | 28.9 | CCCCNc1nc2ccc(F)cc2n2c(=O)n(Cc3ccccc3)nc12 [Compound 46] | –
7 | 32.3 | Nc1nc2ccccc2n2c(=O)n(CC3CC3)nc12 [Compound 47] | –
8 | 28.9 | CN(C)C(=O)c1ccccc1Cn1nc2c(N)nc3ccccc3n2c1=O [Compound 48] | –
9 | 38.4 | Nc1nc2cc(CO)ccc2n2c(=O)n(Cc3ccccc3F)nc12 [Compound 49] | –
10 | 46.3 | Nc1nc2cccnc2n2c(=O)n(Cc3ccccc3)nc12 [Compound 50] | –
11 | 51.5 | COc1ccc2nc(N)c3nn(Cc4ccccc4C(F)(F)F)c(=O)n3c2c1 [Compound 51] | –
12 | 54.9 | CC(O)c1ccc2c(c1)nc(N)c1nn(Cc3ccccc3)c(=O)n12 (stereo not drawn) [Compound 52] | –
13 | 60 | Nc1nc2ccc(CO)cc2n2c(=O)n(Cc3ccccc3)nc12 [Compound 53] | –
14 | 66.4 | Nc1nc2ccccc2n2c(=O)n(Cc3ccccc3C(=O)N3CCOCC3)nc12 [Compound 54] | –
15 | 70.8 | COC(=O)c1ccc2nc(N)c3nn(Cc4ccccc4)c(=O)n3c2c1 [Compound 55] | –
16 | 91.1 | CC(c1ccccc1)n1nc2c(N)nc3ccccc3n2c1=O (stereo not drawn) [Compound 56] | –

More lines, now with the values behind:

Row | Compound | Ki [1] [nM] | also measured
17 | Nc1nc2cc(F)c(F)cc2n2c(=O)n(Cc3c(F)cccc3F)nc12 [Compound 1] | 0.4 | –
18 | Nc1nc2ccccc2n2c(=O)n(Cc3ccccc3)nc12 [Compound 2] | 0.7 | –
19 | Cc1cccc2c1nc(N)c1nn(Cc3ccccc3)c(=O)n12 [Compound 3] | 0.6 | –
20 | Nc1ccccc1Cn1nc2c(N)nc3ccccc3n2c1=O [Compound 5] | 0.7 | –
21 | Nc1nc2ccc(F)cc2n2c(=O)n(Cc3ccccc3)nc12 [Compound 6] | 0.9 | –
22 | Nc1nc2ccc(F)cc2n2c(=O)n(Cc3c(F)cccc3F)nc12 [Compound 7] | 0.7 | –
23 | Nc1nc2ccccc2n2c(=O)n(Cc3cccc(F)c3F)nc12 [Compound 8] | 1 | –
24 | Nc1nc2ccccc2n2c(=O)n(Cc3c(F)cccc3F)nc12 [Compound 9] | 1 | –
25 | Nc1nc2ccc(F)cc2n2c(=O)n(Cc3ccc(F)cc3)nc12 [Compound 10] | 1 | –
26 | Nc1nc2ccccc2n2c(=O)n(Cc3ccccc3CO)nc12 [Compound 11] | 1.2 | –
27 | Nc1nc2ccc(F)cc2n2c(=O)n(Cc3c(F)cc(F)cc3F)nc12 [Compound 12] | 1 | –
28 | Nc1nc2ccccc2n2c(=O)n(Cc3c(F)cc(F)cc3F)nc12 [Compound 13] | 1.4 | –
29 | N#Cc1ccccc1Cn1nc2c(N)nc3ccccc3n2c1=O [Compound 14] | 1.2 | –
30 | Nc1nc2cc([N+](=O)[O-])ccc2n2c(=O)n(Cc3ccccc3)nc12 [Compound 15] | 1.4 | –
31 | Nc1nc2cc(Cl)c(Cl)cc2n2c(=O)n(Cc3ccccc3)nc12 [Compound 16] | 1.4 | –
32 | Nc1nc2cc(F)c(F)cc2n2c(=O)n(Cc3ccccc3)nc12 [Compound 17] | 1.4 | –
33 | Nc1nc2ccccc2n2c(=O)n(Cc3ccc(F)cc3)nc12 [Compound 18] | 1.9 | –
34 | COC(=O)c1ccc2c(c1)nc(N)c1nn(Cc3ccccc3)c(=O)n12 [Compound 19] | 1.7 | –
35 | Nc1nc2cc(C(F)(F)F)ccc2n2c(=O)n(Cc3c(F)cccc3F)nc12 [Compound 20] | 1.8 | –
36 | Nc1nc2ccccc2n2c(=O)n(Cc3ccccc3C(F)(F)F)nc12 [Compound 21] | 1.8 | –
37 | Nc1nc2ccc(F)cc2n2c(=O)n(Cc3c(F)cccc3C(F)(F)F)nc12 [Compound 22] | 2.2 | –
38 | CC(C)(O)c1ccccc1Cn1nc2c(N)nc3ccccc3n2c1=O [Compound 23] | 2 | –

Row | Compound | Ki [1] [nM] | also measured
39 | Nc1nc2cc(F)c(F)cc2n2c(=O)n(Cc3c(F)cc(F)cc3F)nc12 [Compound 24] | 2.8 | –
40 | Nc1nc2cc(C=O)ccc2n2c(=O)n(Cc3ccccc3)nc12 [Compound 25] | 2.6 | –
41 | COC(=O)c1ccccc1Cn1nc2c(N)nc3ccccc3n2c1=O [Compound 26] | 1.9 | –
42 | Nc1nc2ccccc2n2c(=O)n(Cc3c(F)cccc3C(F)(F)F)nc12 [Compound 27] | 2.5 | –
43 | Nc1nc2ccc(Cl)cc2n2c(=O)n(Cc3ccccc3)nc12 [Compound 28] | 2.7 | –
44 | Nc1nc2ccccc2n2c(=O)n(Cc3ccccc3[N+](=O)[O-])nc12 [Compound 29] | 3.2 | –
45 | Nc1nc2ccccc2n2c(=O)n(Cc3c(Cl)cccc3Cl)nc12 [Compound 30] | 3.2 | –
46 | CC(=O)c1ccc2c(c1)nc(N)c1nn(Cc3ccccc3)c(=O)n12 [Compound 31] | 3 | –
47 | N#C/N=c1\n(Cc2ccccc2)nc2c(N)nc3ccccc3n12 [Compound 32] | 4.7 | –
48 | Nc1ccc2c(c1)nc(N)c1nn(Cc3ccccc3)c(=O)n12 [Compound 33] | 5.6 | –
49 | N=c1n(Cc2ccccc2)nc2c(N)nc3ccccc3n12 [Compound 35] | 6 | –
50 | Cc1cccc2nc(N)c3nn(Cc4ccccc4)c(=O)n3c12 [Compound 36] | 7.1 | –
51 | Nc1nc2ccccc2n2c(=O)n(Cc3cc(F)cc(F)c3)nc12 [Compound 37] | 7.4 | –
52 | CC(=O)Nc1ccccc1Cn1nc2c(N)nc3ccccc3n2c1=O [Compound 38] | 7.4 | –
53 | CN(C)/C=N\c1ccccc1Cn1nc2c(N)nc3ccccc3n2c1=O [Compound 39] | 8.2 | –
54 | Nc1nc2cc(CO)ccc2n2c(=O)n(Cc3ccccc3)nc12 [Compound 40] | 8.6 | –
55 | Nc1nc2ccccc2n2cc(Cc3ccccc3)nc12 [Compound 57] | – | Ki [2]: 4.1 nM
56 | Nc1nc2ccccc2n2cc(-c3ccccc3)nc12 [Compound 58] | – | Ki [2]: 57 nM
57 | Nc1nc2ccccc2n2cc(C(=O)c3ccccc3)nc12 [Compound 59] | – | Ki [2]: 42 nM
58 | Nc1nc2ccccc2n2cc(C(O)c3ccccc3)nc12 (stereo not drawn) [Compound 60] | – | Ki [2]: 29 nM
59 | Nc1nc2ccccc2n2nc(Cc3ccccc3)nc12 [Compound 61] | – | Ki [3]: 0.7 nM
60 | Nc1nc2ccccc2c2nc(Cc3ccccc3)cn12 [Compound 62] | – | Ki [3]: 0.7 nM
